Source: the supplement of paper PMC10307832

Columns and labels:
Assay in all cases: relative viability (nuclei count vs DMSO), 5 days (fraction); higher = more cells survive
[1] = compound: NC(=O)[C@@H](CCC(F)(F)F)N(Cc1ccc(-c2ncon2)cc1F)S(=O)(=O)c1ccc(Cl)cc1 [Avagacestat] + O=C(CCCCCCC(=O)Nc1ccccc1)NO [Vorinostat] (partner 1 µM)
Procedure, shortened: (§1)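 Relative viability is defined as nuclei in treated wells over nuclei in vehicle wells. Duplicate plates were run and medians reported. Lung cancer cell lines in 1536-well plates were dosed by pin tool one day after seeding, with one drug or with a fixed anchor-drug dose plus five library-drug doses (not always all listed) in √10 steps, and nuclei were counted after 5 days.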

[2] = compound: NC(=O)[C@@H](CCC(F)(F)F)N(Cc1ccc(-c2ncon2)cc1F)S(=O)(=O)c1ccc(Cl)cc1 [Avagacestat] + Nc1nc2[nH]cc(CCc3ccc(C(=O)N[C@@H](CCC(=O)O)C(=O)O)cc3)c2c(=O)[nH]1 [Pemetrexed] (partner 0.2 µM)
Procedure, shortened: as §1

[3] = compound: NC(=O)[C@@H](CCC(F)(F)F)N(Cc1ccc(-c2ncon2)cc1F)S(=O)(=O)c1ccc(Cl)cc1 [Avagacestat] + Cc1nc(Nc2ncc(C(=O)Nc3c(C)cccc3Cl)s2)cc(N2CCN(CCO)CC2)n1 [Dasatinib] (partner 0.075 µM)
Procedure, shortened: as §1

[4] = compound: NC(=O)[C@@H](CCC(F)(F)F)N(Cc1ccc(-c2ncon2)cc1F)S(=O)(=O)c1ccc(Cl)cc1 [Avagacestat] + CC(=O)c1c(C)c2cnc(Nc3ccc(N4CCNCC4)cn3)nc2n(C2CCCC2)c1=O [Palbociclib] (partner 0.5 µM)
Procedure, shortened: as §1

Cell Line	relative viability ([1]; first compound 0.08 µM)	relative viability ([1]; first compound 0.253 µM)	relative viability ([1]; first compound 0.8 µM)	relative viability ([1]; first compound 2.53 µM)	relative viability ([1]; first compound 8 µM)	relative viability ([2]; first compound 0.08 µM)	relative viability ([2]; first compound 0.253 µM)	relative viability ([2]; first compound 0.8 µM)	relative viability ([2]; first compound 2.53 µM)	relative viability ([2]; first compound 8 µM)	relative viability ([3]; first compound 0.08 µM)	relative viability ([3]; first compound 0.253 µM)	relative viability ([3]; first compound 0.8 µM)	relative viability ([3]; first compound 2.53 µM)	relative viability ([3]; first compound 8 µM)	relative viability ([4]; first compound 0.08 µM)	relative viability ([4]; first compound 0.253 µM)	relative viability ([4]; first compound 0.8 µM)	relative viability ([4]; first compound 2.53 µM)	relative viability ([4]; first compound 8 µM)
NCI-H2087	1.14	0.914	1.07	0.771	0.68	0.658	0.651	0.741	0.632	0.662	0.893	1.18	0.994	0.916	0.686	0.228	0.181	0.276	0.223	0.231
NCI-H2126	0.792	0.715	0.842	0.711	0.753	0.67	0.687	0.698	0.605	0.683	0.588	0.587	0.606	0.467	0.582	0.395	0.355	0.385	0.358	0.373
NCI-H2170	1.35	0.995	0.821	0.876	0.617	0.258	0.268	0.23	0.274	0.261	0.622	0.535	0.647	0.48	0.52	0.421	0.469	0.419	0.404	0.433
NCI-H2228	0.752	0.787	0.569	0.641	0.511	0.364	0.35	0.346	0.301	0.302	0.546	0.426	0.435	0.408	0.474	0.783	0.819	0.947	0.911	0.595
NCI-H2342	0.845	0.822	0.842	0.705	0.774	0.849	0.803	0.903	0.725	0.782	0.344	0.341	0.334	0.31	0.302	0.527	0.482	0.523	0.523	0.552
NCI-H2347	0.599	0.646	0.78	0.499	0.522	0.426	0.454	0.447	0.465	0.406	0.292	0.292	0.369	0.297	0.331	0.398	0.481	0.409	0.445	0.462
NCI-H2405	1.04	1.1	1.12	0.943	0.933	1.15	1.17	1.12	1.01	1.03	0.186	0.204	0.217	0.229	0.226	0.512	0.532	0.478	0.448	0.489
NCI-H3122	1.07	1.4	1.01	1.02	0.918	0.216	0.238	0.208	0.195	0.205	0.944	0.759	0.843	0.815	0.774	0.198	0.191	0.248	0.221	0.182
